Measurements taken from PubChem BioAssay AID330 (DTP/NCI, 2004).
Several values for one entry are separate records, joined by “and”; a condition that tells them apart may be missing. Equal entries are not always repeated. Inconclusive results and toxic doses are left out.

Test system: P388 leukemia ip, CD2F1 mice, survival T/C
Assay: NCI In Vivo Anticancer Drug Screen. Data for tumor model P388 Leukemia (intraperitoneal) in CD2F1 (CDF1) mice
Conditions: endpoint: median survival time, higher = longer survival
How it was run: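 Mice carrying the transplanted tumor received test compound or vehicle. Survival was recorded in each group, and the value is the treated-group measurement divided by that of the vehicle-treated control group.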

[1] = dose: 25.0 mg/kg/injection, schedule: Q01DX005 (ip), vehicle: saline
[2] = dose: 50.0 mg/kg/injection, schedule: Q01DX005 (ip), vehicle: saline
[3] = dose: 100.0 mg/kg/injection, schedule: Q01DX005 (ip), vehicle: saline
[4] = dose: 100.0 mg/kg/injection, schedule: Q01DX001 (ip), vehicle: Klucel (hydroxypropylcellulose) (HPC)
[5] = dose: 200.0 mg/kg/injection, schedule: Q01DX001 (ip), vehicle: Klucel (hydroxypropylcellulose) (HPC)
[6] = dose: 400.0 mg/kg/injection, schedule: Q01DX001 (ip), vehicle: Klucel (hydroxypropylcellulose) (HPC)
[7] = dose: 60.0 mg/kg/injection, schedule: Q01DX005 (ip), vehicle: saline with Tween-80
[8] = dose: 120.0 mg/kg/injection, schedule: Q01DX005 (ip), vehicle: saline with Tween-80
[9] = dose: 100.0 mg/kg/injection, schedule: Q01DX009 (ip), vehicle: saline with Tween-80
[10] = dose: 200.0 mg/kg/injection, schedule: Q01DX009 (ip), vehicle: saline with Tween-80
[11] = dose: 12.5 mg/kg/injection, schedule: Q04DX002 (ip), vehicle: saline with Tween-80
[12] = dose: 25.0 mg/kg/injection, schedule: Q04DX002 (ip), vehicle: saline with Tween-80
[13] = dose: 240.0 mg/kg/injection, schedule: Q01DX005 (ip), vehicle: saline with Tween-80
[14] = dose: 50.0 mg/kg/injection, schedule: Q01DX005 (ip), vehicle: saline with Tween-80
[15] = dose: 100.0 mg/kg/injection, schedule: Q01DX005 (ip), vehicle: saline with Tween-80

`CCOP(=O)(N=Nc1ccc(OC)nc1)OCC` was tested, and the T/C (dose: 12.5 mg/kg/injection, schedule: Q01DX005 (ip), vehicle: saline) was 102 % of control, the T/C [1] was 109 % of control and the T/C [2] was 100 % of control. For the same compound, the T/C [3] was 108 % of control, the T/C (dose: 1560.0 micrograms/kg/injection, schedule: Q01DX009 (ip), vehicle: saline) was 104 % of control and the T/C (dose: 3125.0 micrograms/kg/injection, schedule: Q01DX009 (ip), vehicle: saline) was 102 % of control. The T/C (dose: 6250.0 micrograms/kg/injection, schedule: Q01DX009 (ip), vehicle: saline) was 108 % of control, the T/C (dose: 12500.0 micrograms/kg/injection, schedule: Q01DX009 (ip), vehicle: saline) was 106 % of control and the T/C (dose: 25000.0 micrograms/kg/injection, schedule: Q01DX009 (ip), vehicle: saline) was 112 % of control.
For `Cc1cnc2cc(Cl)ccc2c1NCCNCCO`, the T/C [2] was 119 % of control and the T/C [3] was 119 % of control.
For `CNC(=O)Oc1c(C)[nH]ccc1=O`, the T/C (dose: 400.0 mg/kg/injection, schedule: Q01DX009 (ip), vehicle: saline) was 107 % of control.
With `CS(=O)(=O)OC1COC(c2ccccc2)OC1C1OC(c2ccccc2)OCC1OS(C)(=O)=O` (stereo not given) the T/C [4] was 92 % of control, the T/C [5] was 101 % of control and the T/C [6] was 99 % of control.
With `O=C1OCCOCCOCCOCCOC(=O)c2cncc1c2` the T/C [4] was 101 % of control, the T/C [5] was 108 % of control and the T/C [6] was 105 % of control.
`CC1(C)COC(=O)/C1=C\C#N` was tested, and the T/C (dose: 50.0 mg/kg/injection, schedule: Q04DX003 (ip), vehicle: Klucel (hydroxypropylcellulose) (HPC)) was 94 % of control and 98 % of control, the T/C (dose: 100.0 mg/kg/injection, schedule: Q04DX003 (ip), vehicle: Klucel (hydroxypropylcellulose) (HPC)) was 105 % of control and the T/C (dose: 100.0 mg/kg/injection, schedule: Q04DX003 (ip), vehicle: saline) was 101 % of control. For the same compound, the T/C (dose: 200.0 mg/kg/injection, schedule: Q04DX003 (ip), vehicle: Klucel (hydroxypropylcellulose) (HPC)) was 100 % of control and 97 % of control, the T/C (dose: 200.0 mg/kg/injection, schedule: Q04DX003 (ip), vehicle: saline) was 111 % of control and the T/C (dose: 400.0 mg/kg/injection, schedule: Q04DX003 (ip), vehicle: Klucel (hydroxypropylcellulose) (HPC)) was 105 % of control. For the same compound, the T/C (dose: 400.0 mg/kg/injection, schedule: Q04DX003 (ip), vehicle: saline) was 120 % of control.
With `COc1ccc(Cl)cc1Cn1ccnc1` the T/C [7] was 97 % of control and the T/C [8] was 103 % of control.
For `C1=Cc2ccccc2CS1`, the T/C (dose: 25.0 mg/kg/injection, schedule: Q01DX009 (ip), vehicle: other) was 106 % of control, the T/C (dose: 50.0 mg/kg/injection, schedule: Q01DX009 (ip), vehicle: other) was 116 % of control and the T/C (dose: 100.0 mg/kg/injection, schedule: Q01DX009 (ip), vehicle: other) was 108 % of control. For the same compound, the T/C (dose: 200.0 mg/kg/injection, schedule: Q01DX009 (ip), vehicle: other) was 88 % of control and the T/C (dose: 400.0 mg/kg/injection, schedule: Q01DX009 (ip), vehicle: other) was 88 % of control.
In the case of `COC(=O)C1c2cc(OC)c(OC)cc2C(=O)N2CCc3cc4c(cc3C12)OCO4` (stereo not given), the T/C (dose: 50.0 mg/kg/injection, schedule: Q04DX003 (ip), vehicle: distilled water + Tween-80) is reported as 100 % of control and 101 % of control, the T/C (dose: 100.0 mg/kg/injection, schedule: Q04DX003 (ip), vehicle: distilled water + Tween-80) is reported as 99 % of control and 105 % of control and the T/C (dose: 200.0 mg/kg/injection, schedule: Q04DX003 (ip), vehicle: distilled water + Tween-80) is reported as 97 % of control and 101 % of control. For the same compound, the T/C (dose: 400.0 mg/kg/injection, schedule: Q04DX003 (ip), vehicle: distilled water + Tween-80) was 104 % of control and 100 % of control.
In the case of `Cn1c(=O)oc2c(Br)cc(Br)cc21`, the T/C (dose: 50.0 mg/kg/injection, schedule: Q04DX002 (ip), vehicle: Klucel (hydroxypropylcellulose) (HPC)) is reported as 101 % of control, the T/C (dose: 100.0 mg/kg/injection, schedule: Q04DX002 (ip), vehicle: Klucel (hydroxypropylcellulose) (HPC)) is reported as 104 % of control and the T/C (dose: 200.0 mg/kg/injection, schedule: Q04DX002 (ip), vehicle: Klucel (hydroxypropylcellulose) (HPC)) is reported as 101 % of control.
In the case of `COC(=O)c1ccc(-c2ccccc2)cc1`, the T/C (dose: 25.0 mg/kg/injection, schedule: Q01DX009 (ip), vehicle: Klucel (hydroxypropylcellulose) (HPC)) is reported as 89 % of control, the T/C (dose: 50.0 mg/kg/injection, schedule: Q01DX009 (ip), vehicle: Klucel (hydroxypropylcellulose) (HPC)) is reported as 89 % of control and the T/C (dose: 100.0 mg/kg/injection, schedule: Q01DX009 (ip), vehicle: Klucel (hydroxypropylcellulose) (HPC)) is reported as 90 % of control. The T/C (dose: 200.0 mg/kg/injection, schedule: Q01DX009 (ip), vehicle: Klucel (hydroxypropylcellulose) (HPC)) was 86 % of control.
For `CC(CCCSC(=N)N)SC(=N)N` (stereo not given), the T/C (dose: 12.5 mg/kg/injection, schedule: Q01DX009 (ip), vehicle: saline) was 105 % of control, the T/C (dose: 25.0 mg/kg/injection, schedule: Q01DX009 (ip), vehicle: saline) was 98 % of control and the T/C (dose: 50.0 mg/kg/injection, schedule: Q01DX009 (ip), vehicle: saline) was 104 % of control.
For `O=c1nc(-c2ccc3c(c2)OCO3)sc(=O)[nH]1`, the T/C (dose: 50.0 mg/kg/injection, schedule: Q01DX009 (ip), vehicle: saline with Tween-80) was 111 % of control, the T/C [9] was 107 % of control and the T/C [10] was 112 % of control.
For `NC(=O)C1CCCCC1C(N)=O` (stereo not given), the T/C [9] was 100 % of control, the T/C [10] was 104 % of control and the T/C (dose: 400.0 mg/kg/injection, schedule: Q01DX009 (ip), vehicle: saline with Tween-80) was 104 % of control.
With `CC1(C)CCCC2(C)C1CCC1(C)OC(/C(C=O)=C/C=O)CC12` (stereo not given) the T/C (dose: 40.0 mg/kg/injection, schedule: Q01DX009 (ip), vehicle: Klucel (hydroxypropylcellulose) (HPC)) was 112 % of control and the T/C (dose: 80.0 mg/kg/injection, schedule: Q01DX009 (ip), vehicle: Klucel (hydroxypropylcellulose) (HPC)) was 105 % of control.
For `NC(=O)C1=CC2C3C=CC2(O)C(=O)OC3O1` (stereo not given), the T/C (dose: 7.5 mg/kg/injection, schedule: Q01DX005 (ip), vehicle: Klucel (hydroxypropylcellulose) (HPC)) was 114 % of control and 119 % of control and the T/C (dose: 30.0 mg/kg/injection, schedule: Q01DX005 (ip), vehicle: Klucel (hydroxypropylcellulose) (HPC)) was 158 % of control.
`O=C1CCC(=O)S1` was tested, and the T/C [11] was 100 % of control, the T/C [12] was 91 % of control and the T/C (dose: 50.0 mg/kg/injection, schedule: Q04DX002 (ip), vehicle: saline with Tween-80) was 91 % of control.
`C=CCCCN1C(=O)CCCC1=O` was tested, and the T/C [7] was 100 % of control, the T/C [8] was 101 % of control and the T/C [13] was 101 % of control.
In the case of `CC1=CN2C(c3cccc([N+](=O)[O-])c3)=NON(c3ccc(C)cn3)C2C=C1` (stereo not given), the T/C [7] is reported as 87 % of control, the T/C [8] is reported as 86 % of control and the T/C [13] is reported as 92 % of control.
In the case of `CCCCN(CCCC)CCNc1ccc(C)c2sc3cc(C)ccc3c(=O)c12`, the T/C [14] is reported as 116 % of control, the T/C [15] is reported as 102 % of control and the T/C (dose: 200.0 mg/kg/injection, schedule: Q01DX005 (ip), vehicle: saline with Tween-80) is reported as 98 % of control.
For `CC1=Nc2nnnn2N=C(C)C1`, the T/C [1] was 104 % of control, the T/C [2] was 92 % of control and the T/C [3] was 95 % of control.
`COc1cc(C[C@@H](CO)[C@H](CO)Cc2ccc3c(c2)OCO3)cc(OC)c1OC` was tested, and the T/C (dose: 6.25 mg/kg/injection, schedule: Q04DX002 (ip), vehicle: saline with Tween-80) was 101 % of control, the T/C [11] was 101 % of control and the T/C [12] was 93 % of control.
With `COc1cccc(Nc2ncnc3c2c(=O)n(C)c(=O)n3C)c1` the T/C (dose: 25.0 mg/kg/injection, schedule: Q01DX005 (ip), vehicle: saline with Tween-80) was 91 % of control, the T/C [14] was 87 % of control and the T/C [15] was 87 % of control.
In the case of `COC(=O)C(C)Oc1ccc(OC#N)cc1` (stereo not given), the T/C [7] is reported as 102 % of control, the T/C [8] is reported as 101 % of control and the T/C [13] is reported as 93 % of control.
For `Cc1ccc(NC(=O)Nc2ccccc2C(N)=O)cc1`, the T/C (dose: 100.0 mg/kg/injection, schedule: Q04DX003 (ip), vehicle: saline with Tween-80) was 95 % of control, the T/C (dose: 200.0 mg/kg/injection, schedule: Q04DX003 (ip), vehicle: saline with Tween-80) was 95 % of control and the T/C (dose: 400.0 mg/kg/injection, schedule: Q04DX003 (ip), vehicle: saline with Tween-80) was 90 % of control.
In the case of `CCS/C(SC)=C(/c1ccccc1)[P+](c1ccccc1)(c1ccccc1)c1ccccc1`, the T/C (dose: 3.12 mg/kg/injection, schedule: Q01DX005 (ip), vehicle: Klucel (hydroxypropylcellulose) (HPC)) is reported as 106 % of control and the T/C (dose: 12.5 mg/kg/injection, schedule: Q01DX005 (ip), vehicle: Klucel (hydroxypropylcellulose) (HPC)) is reported as 117 % of control.
